Results: PMC9120478 (Nature Communications, 2022)
Substitutions are numbered along the chain they refer to.

How the values were obtained:
[1] = target: T1, TRPV3-F633A (Mus musculus, UniProt Q8K424, F633A); assay: Fura-2 ratiometric Ca2+ uptake, inhibition of 2-APB-evoked response; type: cell-based
T1 construct: expressed in transfected cells; host or cells: HEK 293 S GnTI- cells (baculovirus transduction)
T1 sequence (Q8K424 1-791 F633A): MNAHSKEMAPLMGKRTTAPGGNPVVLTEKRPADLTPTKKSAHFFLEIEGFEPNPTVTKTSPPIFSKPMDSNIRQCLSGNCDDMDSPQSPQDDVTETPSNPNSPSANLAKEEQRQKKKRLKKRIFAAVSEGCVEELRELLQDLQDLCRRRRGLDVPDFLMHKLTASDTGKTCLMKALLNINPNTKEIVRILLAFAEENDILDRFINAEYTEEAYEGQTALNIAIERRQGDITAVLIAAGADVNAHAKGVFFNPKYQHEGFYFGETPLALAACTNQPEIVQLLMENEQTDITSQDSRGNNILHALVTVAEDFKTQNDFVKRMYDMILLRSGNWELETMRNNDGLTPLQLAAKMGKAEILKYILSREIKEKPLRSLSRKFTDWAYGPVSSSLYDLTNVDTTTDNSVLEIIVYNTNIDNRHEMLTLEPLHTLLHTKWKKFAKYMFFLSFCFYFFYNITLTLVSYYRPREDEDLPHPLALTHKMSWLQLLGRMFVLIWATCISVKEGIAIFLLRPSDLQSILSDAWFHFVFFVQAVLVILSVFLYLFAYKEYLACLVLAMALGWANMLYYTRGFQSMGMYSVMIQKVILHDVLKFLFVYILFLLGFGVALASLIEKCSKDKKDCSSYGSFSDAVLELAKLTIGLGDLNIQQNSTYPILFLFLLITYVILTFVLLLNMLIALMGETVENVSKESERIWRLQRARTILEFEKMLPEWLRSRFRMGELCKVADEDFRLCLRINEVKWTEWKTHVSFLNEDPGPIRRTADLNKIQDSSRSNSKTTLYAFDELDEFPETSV
Text: (§1) The portal site in TRPV3 has not been previously shown to bind small-molecule inhibitors. This site, however, was originally proposed to be an entry pathway for local anesthetics to the pore of sodium channels[47]–[49] and found to accommodate cannabidiol in TRPV2, a closely-related representative of the vanilloid subfamily of TRP channels. […] We concluded that the Y594A mutation altered gating properties of TRPV3 and excluded this mutant from further analysis.
(§2) GFP-free C-terminally strep-tagged wild-type TRPV3, TRPV3-Y564A, TRPV3-Y594A, TRPV3-F633A, TRPV3-I663W, and TRPV3-F666A were expressed in HEK 293 S GnTI^− cells as previously described[41],[42],[53]. In short, 48 h after transduction, 1-ml aliquots of cell suspension were collected by centrifugation at 550 g for 5 min using an Eppendorf 5424 centrifuge. The cells were resuspended in the pre-warmed modified HEPES-buffered saline (HBS) containing 118 mM NaCl, 4.8 mM KCl, 1 mM MgCl2, 5 mM D-glucose, and 10 mM HEPES pH 7.4 and 5 μg/ml Fura-2 AM (Thermo Fisher Scientific) and incubated for 45 min at 37 °C. The Fura-2-loaded cells were then centrifuged for 5 min at 550 g, resuspended in the pre-warmed, modified HBS and incubated again for 30 min at 37 °C in the dark. The cells were subsequently pelleted and washed twice in the modified HBS. The washed cell pellets were kept on ice in the dark before taking an aliquot for fluorescence measurements. […] We used the lower CaCl2 concentration than before[42],[28] (2.5 mM) to minimize non-specific effects, which often appeared as a drift in the Fura-2 signal at high Ca^2+ concentration, presumably due to cell death as a result of calcium overload. Fluorescence measurements were conducted using a QuantaMaster 40 spectrofluorometer (Photon Technology International) at room temperature in a quartz cuvette under constant stirring. After 60 s since the beginning, the recording was paused and 2-APB was added. After the addition of 2-APB, the recording was continued for the additional 140 s. Changes in intracellular Ca^2+ were measured by taking the ratio of fluorescence emitted at 510 nm at the excitation wavelength of 340 nm and 380 nm. […] The data were processed using Origin 9.0 (OriginLab) software.

[2] = target: T2, TRPV3-I663W (Mus musculus, UniProt Q8K424, I663W); assay: as above; type: cell-based; settings: n = 3
T2 construct: expressed in transfected cells; host or cells: HEK 293 S GnTI- cells (baculovirus transduction)
T2 sequence (Q8K424 1-791 I663W): T1 sequence (Q8K424 1-791 F633A) with A633F, I663W
Text: as §1, §2

CCCCOc1ccc(C(=O)CCN2CCCCC2)cc1 [dyclonine, 1-(4-butoxyphenyl)-3-piperidin-1-ylpropan-1-one]
IC50 of F633A compared to wild-type channels [1]: three times smaller | IC50 ([1]; 200 µM 2-APB, n = 6, read-out: IC50, inhibition of F633A mutant): 9.8 ± 0.7 µM | nHill of inhibition curve, F633A ([1]; logistic fit, n = 6): 1.68 ± 0.19 | IC50 ([2]; 200 µM 2-APB, read-out: IC50, inhibition of I663W mutant): 31.5 ± 1.6 µM | nHill of inhibition curve, I663W ([2]; logistic fit): 1.63 ± 0.07
